Biological target: Disintegrin and metalloproteinase domain-containing protein 17 (Homo sapiens, UniProt P78536)
Experiment: Inhibition of recombinant TACE catalytic domain (unknown origin) using Abz-LAQAVRSSSR-Dpa as substrate preincubated for 10 mins followed by substrate addition measured after 10 mins by FRET assay

Chain of Disintegrin and metalloproteinase domain-containing protein 17 (P78536 whole entry, the tested form may be a part): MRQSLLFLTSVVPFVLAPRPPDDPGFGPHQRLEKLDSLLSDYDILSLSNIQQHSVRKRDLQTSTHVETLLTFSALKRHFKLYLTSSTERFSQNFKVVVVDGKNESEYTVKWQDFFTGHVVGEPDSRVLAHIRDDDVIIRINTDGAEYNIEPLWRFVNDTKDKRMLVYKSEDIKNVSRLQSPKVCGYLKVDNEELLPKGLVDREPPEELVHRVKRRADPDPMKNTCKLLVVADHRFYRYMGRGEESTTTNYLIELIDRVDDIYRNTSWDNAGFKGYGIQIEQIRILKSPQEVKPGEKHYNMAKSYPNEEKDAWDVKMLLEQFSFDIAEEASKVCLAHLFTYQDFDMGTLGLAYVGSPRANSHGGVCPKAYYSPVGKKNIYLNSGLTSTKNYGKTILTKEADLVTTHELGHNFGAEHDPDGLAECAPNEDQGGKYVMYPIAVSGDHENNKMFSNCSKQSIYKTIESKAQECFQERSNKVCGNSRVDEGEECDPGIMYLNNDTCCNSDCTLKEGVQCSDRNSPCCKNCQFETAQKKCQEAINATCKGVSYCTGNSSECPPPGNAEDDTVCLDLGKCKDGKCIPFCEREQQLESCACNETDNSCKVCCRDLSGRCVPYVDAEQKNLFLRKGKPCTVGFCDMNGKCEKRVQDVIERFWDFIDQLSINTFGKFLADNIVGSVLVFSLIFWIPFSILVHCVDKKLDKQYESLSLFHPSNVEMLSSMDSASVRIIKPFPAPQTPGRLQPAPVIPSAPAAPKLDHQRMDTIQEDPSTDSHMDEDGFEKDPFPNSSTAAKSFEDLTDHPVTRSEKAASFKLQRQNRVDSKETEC

IC50: 0.7 nM
Compound: C#CCN1C[C@H](C(=O)NO)[C@H](NS(=O)(=O)c2ccc(OCc3cc(C)nc4ccccc34)cc2)C1
